Experimental data as given in article PMC6471485, “Selective Inhibitors of a Human Prolyl Hydroxylase (OGFOD1) Involved in Ribosomal Decoding” (Chemistry (Weinheim an Der Bergstrasse, Germany), 2019).

How the values were obtained:
OGFOD1 = target: T1, OGFOD1 (Homo sapiens, UniProt Q8N543); assay: wLOGSY NMR binding experiment with OGFOD1; conditions: 120 µM inhibitor, 15 µM OGFOD1
T1 sequence (Q8N543 1-542): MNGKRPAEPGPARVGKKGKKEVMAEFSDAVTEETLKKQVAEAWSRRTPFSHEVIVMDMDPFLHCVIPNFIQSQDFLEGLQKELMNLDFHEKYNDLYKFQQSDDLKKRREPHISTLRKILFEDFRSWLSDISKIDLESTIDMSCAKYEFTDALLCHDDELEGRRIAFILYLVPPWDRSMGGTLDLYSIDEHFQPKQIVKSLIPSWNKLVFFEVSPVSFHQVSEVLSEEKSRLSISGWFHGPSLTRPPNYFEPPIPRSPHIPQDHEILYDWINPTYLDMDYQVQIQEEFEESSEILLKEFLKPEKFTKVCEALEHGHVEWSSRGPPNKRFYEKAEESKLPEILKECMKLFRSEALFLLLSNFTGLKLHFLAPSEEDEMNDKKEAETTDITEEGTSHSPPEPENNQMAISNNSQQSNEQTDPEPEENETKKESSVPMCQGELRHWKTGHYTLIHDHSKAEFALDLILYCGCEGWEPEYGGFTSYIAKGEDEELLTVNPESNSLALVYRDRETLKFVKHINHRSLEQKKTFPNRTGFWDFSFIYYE
Protocol: total echo time of 40 ms, a relaxation delay of 2 s, with 256 scans. Water suppression was achieved by presaturation. Samples contained 30 µM apo-PHD2181-426 or OGFOD1, supplemented with 60 µM Zn(II), 30 µM of inhibitor, all in 50 mM Tris-d11, pH 7.5, 10 % D2O, […]
wLOGSY Binding Experiments: For water-ligand observed gradient spectroscopy (wLOGSY) analyses, typical experimental parameters were the following: mixing time, 1 s; relaxation delay, 2 s; number of transients, 512. Solvent excitation was achieved using a 16-ms 180° selective rectangular shape pulse with 1,000 points (Squa100.1000) set at the H2O frequency.
Water suppression was achieved by a 2-ms sinc pulse (Sinc1.1000) at the H2O frequency.
Samples contained 5-fold molar excess inhibitor:protein as detailed in the figure legends; all analyses were in 50 mM Tris-d11, pH 7.5, 10 % D2O, 90 % H2O supplemented with 60 µM […]
Competition Experiments by 2OG Displacement: 2OG displacement assays[12] were performed using CPMG-edited 1H spectra. The PROJECT-CPMG sequence was applied as described by Aguilar et al.[11] The standard experimental parameters used were a total echo time of 40 ms, a relaxation delay of 2 s, with 160 scans. Water suppression was achieved by presaturation. The 2OG methylene resonance at 2.35 ppm was monitored. The percentage 2OG displacement was […]
% 2OG displacement = !2OG%!2OG(0) ×100 […]

Compound | melting point [°C] | binding to OGFOD1 by wLOGSY NMR, in words (OGFOD1)
Cn1c(O)c(C(=O)CCc2cccs2)c(=O)n(C)c1=O [compound 42] | 91 | indicates a binding interaction
Cn1c(O)c(C(=O)CCc2ccccc2)c(=O)n(C)c1=O [compound 26] | – | indicates a binding interaction
